Assay results published in patent US10112941B2, “Tricyclic compounds as anticancer agents” (BRISTOL-MYERS SQUIBB COMPANY, priority 2013, dated 2018).

molecular target: BRD4 (Homo sapiens, UniProt O60885); assay: Time Resolved Fluorescence Resonance Energy Transfer (TR-FRET) binding assay, BRD4; settings: one of the FRET assays described; read-out: FRET BRD4 IC50

Compound	IC50
Cc1nnn(C)c1-c1cnc2c3c(S(C)(=O)=O)cccc3n(C(c3ccccc3F)C3CCOCC3)c2c1 (single isomer, unassigned) [Example 116, 5-{5-[(2-Fluorophenyl)(oxan-4-yl)methyl]-9-methanesulfonyl-5H-pyrido[3,2-b]indol-3-yl}-1,4-dimethyl-1H-1,2,3-triazole]	< 25 nM
Cc1nnn(C)c1-c1cnc2c3c(S(C)(=O)=O)cccc3n(C(c3c(F)cc(F)cc3F)C3CCOCC3)c2c1 (single isomer, unassigned) [Example 117, 5-{9-Methanesulfonyl-5-[oxan-4-yl(2,4,6-trifluorophenyl)methyl]-5H-pyrido[3,2-b]indol-3-yl}-1,4-dimethyl-1H-1,2,3-triazole]	< 5 nM
Cc1nnn(C)c1-c1cnc2c3c(S(C)(=O)=O)cccc3n(C(c3c(F)cc(F)cc3F)C3CCOCC3)c2c1 (single isomer, unassigned) [Example 118, 5-{9-Methanesulfonyl-5-[oxan-4-yl(2,4,6-trifluorophenyl)methyl]-5H-pyrido[3,2-b]indol-3-yl}-1,4-dimethyl-1H-1,2,3-triazole]	< 5 nM
COc1ccc(C(C2CCOCC2)n2c3cc(C(C)(C)O)ccc3c3ncc(-c4c(C)nnn4C)cc32)c(F)c1 (single isomer, unassigned) [Example 119, 2-[3-(Dimethyl-1H-1,2,3-triazol-5-yl)-5-[(2-fluoro-4-methoxyphenyl)(oxan-4-yl)methyl]-5H-pyrido[3,2-b]indol-7-yl]propan-2-ol]	< 5 nM
COc1ccc(C(C2CCOCC2)n2c3cc(C(C)(C)O)ccc3c3ncc(-c4c(C)nnn4C)cc32)c(F)c1 (single isomer, unassigned) [Example 120, 2-[3-(Dimethyl-1H-1,2,3-triazol-5-yl)-5-[(2-fluoro-4-methoxyphenyl)(oxan-4-yl)methyl]-5H-pyrido[3,2-b]indol-7-yl]propan-2-ol]	< 5 nM
COc1ccc(C(C2CCOCC2)n2c3cc(C(C)(C)O)ccc3c3ncc(-c4c(C)nnn4C)cc32)c(F)c1F (single isomer, unassigned) [Example 121, 2-{5-[(2,3-Difluoro-4-methoxyphenyl)(oxan-4-yl)methyl]-3-(dimethyl-1H-1,2,3-triazol-5-yl)-5H-pyrido[3,2-b]indol-7-yl}propan-2-ol]	< 25 nM
COc1ccc(C(C2CCOCC2)n2c3cc(C(C)(C)O)ccc3c3ncc(-c4c(C)nnn4C)cc32)c(F)c1F (single isomer, unassigned) [Example 122, 2-{5-[(2,3-Difluoro-4-methoxyphenyl)(oxan-4-yl)methyl]-3-(dimethyl-1H-1,2,3-triazol-5-yl)-5H-pyrido[3,2-b]indol-7-yl}propan-2-ol]	< 5 nM
COc1cc(F)c(C(C2CCOCC2)n2c3cc(C(C)(C)O)ccc3c3ncc(-c4c(C)nnn4C)cc32)cc1F (single isomer, unassigned) [Example 123, 2-{5-[(2,5-Difluoro-4-methoxyphenyl)(oxan-4-yl)methyl]-3-(dimethyl-1H-1,2,3-triazol-5-yl)-5H-pyrido[3,2-b]indol-7-yl}propan-2-ol]	< 5 nM
COc1cc(F)c(C(C2CCOCC2)n2c3cc(C(C)(C)O)ccc3c3ncc(-c4c(C)nnn4C)cc32)cc1F (single isomer, unassigned) [Example 124, 2-{5-[(2,5-Difluoro-4-methoxyphenyl)(oxan-4-yl)methyl]-3-(dimethyl-1H-1,2,3-triazol-5-yl)-5H-pyrido[3,2-b]indol-7-yl}propan-2-ol]	< 5 nM
Cc1noc(C)c1-c1cnc2c3ccc(C(C)(C)O)cc3n(C(c3ccc(F)cc3F)C3CCOCC3)c2c1 (single isomer, unassigned) [Example 125, 2-{5-[(2,4-Difluorophenyl)(oxan-4-yl)methyl]-3-(dimethyl-1,2-oxazol-4-yl)-5H-pyrido[3,2-b]indol-7-yl}propan-2-ol]	< 5 nM
Cc1noc(C)c1-c1cnc2c3ccc(C(C)(C)O)cc3n(C(c3ccc(F)cc3F)C3CCOCC3)c2c1 (single isomer, unassigned) [Example 126, 2-{5-[(2,4-Difluorophenyl)(oxan-4-yl)methyl]-3-(dimethyl-1,2-oxazol-4-yl)-5H-pyrido[3,2-b]indol-7-yl}propan-2-ol]	< 25 nM
Cc1noc(C)c1-c1cnc2c3ccc(C(C)(C)O)cc3n(C(c3c(F)cc(F)cc3F)C3CCOCC3)c2c1 (single isomer, unassigned) [Example 127, 2-[3-(Dimethyl-1,2-oxazol-4-yl)-5-[oxan-4-yl(2,4,6-trifluorophenyl)methyl]-5H-pyrido[3,2-b]indol-7-yl]propan-2-ol]	< 5 nM
Cc1noc(C)c1-c1cnc2c3ccc(C(C)(C)O)cc3n(C(c3c(F)cc(F)cc3F)C3CCOCC3)c2c1 (single isomer, unassigned) [Example 128, 2-[3-(Dimethyl-1,2-oxazol-4-yl)-5-[oxan-4-yl(2,4,6-trifluorophenyl)methyl]-5H-pyrido[3,2-b]indol-7-yl]propan-2-ol]	< 25 nM
Cc1noc(C)c1-c1cnc2c3ccc(C(C)(C)O)cc3n(C(c3cc(F)cc(F)c3)C3CCOCC3)c2c1 (single isomer, unassigned) [Example 129, 2-{5-[(3,5-Difluorophenyl)(oxan-4-yl)methyl]-3-(dimethyl-1,2-oxazol-4-yl)-5H-pyrido[3,2-b]indol-7-yl}propan-2-ol]	< 1500 nM
Cc1noc(C)c1-c1cnc2c3ccc(C(C)(C)O)cc3n(C(c3cc(F)cc(F)c3)C3CCOCC3)c2c1 (single isomer, unassigned) [Example 130, 2-{5-[(3,5-Difluorophenyl)(oxan-4-yl)methyl]-3-(dimethyl-1,2-oxazol-4-yl)-5H-pyrido[3,2-b]indol-7-yl}propan-2-ol]	< 5 nM
Cc1nnn(C)c1-c1cnc2c3ccc(C(C)(C)O)cc3n(C(c3cc(F)ccc3F)C3CCOCC3)c2c1 (single isomer, unassigned) [Example 131, 2-{5-[(2,5-Difluorophenyl)(oxan-4-yl)methyl]-3-(dimethyl-1H-1,2,3-triazol-5-yl)-5H-pyrido[3,2-b]indol-7-yl}propan-2-ol]	< 5 nM
Cc1nnn(C)c1-c1cnc2c3ccc(C(C)(C)O)cc3n(C(c3cc(F)ccc3F)C3CCOCC3)c2c1 (single isomer, unassigned) [Example 132, 2-{5-[(2,5-Difluorophenyl)(oxan-4-yl)methyl]-3-(dimethyl-1H-1,2,3-triazol-5-yl)-5H-pyrido[3,2-b]indol-7-yl}propan-2-ol]	< 5 nM
Cc1nnn(C)c1-c1cnc2c3ccc(C(C)(C)O)cc3n(C(c3c(F)cccc3F)C3CCOCC3)c2c1 (single isomer, unassigned) [Example 133, 2-{5-[(2,6-Difluorophenyl)(oxan-4-yl)methyl]-3-(dimethyl-1H-1,2,3-triazol-5-yl)-5H-pyrido[3,2-b]indol-7-yl}propan-2-ol]	< 5 nM
Cc1nnn(C)c1-c1cnc2c3ccc(C(C)(C)O)cc3n(C(c3c(F)cccc3F)C3CCOCC3)c2c1 (single isomer, unassigned) [Example 134, 2-{5-[(2,6-Difluorophenyl)(oxan-4-yl)methyl]-3-(dimethyl-1H-1,2,3-triazol-5-yl)-5H-pyrido[3,2-b]indol-7-yl}propan-2-ol]	< 5 nM
Cc1nnn(C)c1-c1cnc2c3ccc(C(C)(C)O)cc3n(C(c3ccc(F)cc3F)C3CCOCC3)c2c1 (single isomer, unassigned) [Example 135, 2-{5-[(2,4-Difluorophenyl)(oxan-4-yl)methyl]-3-(dimethyl-1H-1,2,3-triazol-5-yl)-5H-pyrido[3,2-b]indol-7-yl}propan-2-ol]	< 5 nM
Cc1nnn(C)c1-c1cnc2c3ccc(C(C)(C)O)cc3n(C(c3ccc(F)cc3F)C3CCOCC3)c2c1 (single isomer, unassigned) [Example 136, 2-{5-[(2,4-Difluorophenyl)(oxan-4-yl)methyl]-3-(dimethyl-1H-1,2,3-triazol-5-yl)-5H-pyrido[3,2-b]indol-7-yl}propan-2-ol]	< 5 nM
COc1cc(C(C)(C)O)cc2c1c1ncc(-c3c(C)nnn3C)cc1n2C(c1ccccc1F)C1CCOCC1 (single isomer, unassigned) [Example 137, 2-[3-(Dimethyl-1H-1,2,3-triazol-5-yl)-5-[(2-fluorophenyl)(oxan-4-yl)methyl]-9-methoxy-5H-pyrido[3,2-b]indol-7-yl]propan-2-ol]	< 5 nM
COc1cc(C(C)(C)O)cc2c1c1ncc(-c3c(C)nnn3C)cc1n2C(c1ccccc1F)C1CCOCC1 (single isomer, unassigned) [Example 138, 2-[3-(Dimethyl-1H-1,2,3-triazol-5-yl)-5-[(2-fluorophenyl)(oxan-4-yl)methyl]-9-methoxy-5H-pyrido[3,2-b]indol-7-yl]propan-2-ol]	< 5 nM
Cc1noc(C)c1-c1cnc2c3ccc(C(C)(C)O)cc3n(C(c3cc(F)ccc3F)C3CCOCC3)c2c1 (single isomer, unassigned) [Example 139, 2-{5-[(2,5-Difluorophenyl)(oxan-4-yl)methyl]-3-(dimethyl-1,2-oxazol-4-yl)-5H-pyrido[3,2-b]indol-7-yl}propan-2-ol]	< 5 nM
Cc1noc(C)c1-c1cnc2c3ccc(C(C)(C)O)cc3n(C(c3cc(F)ccc3F)C3CCOCC3)c2c1 (single isomer, unassigned) [Example 140, 2-{5-[(2,5-Difluorophenyl)(oxan-4-yl)methyl]-3-(dimethyl-1,2-oxazol-4-yl)-5H-pyrido[3,2-b]indol-7-yl}propan-2-ol]	< 5 nM
Cc1noc(C)c1-c1cnc2c3ccc(C(C)(C)O)cc3n(C(c3ccc(F)c(F)c3)C3CCOCC3)c2c1 (single isomer, unassigned) [Example 141, 2-{5-[(3,4-Difluorophenyl)(oxan-4-yl)methyl]-3-(dimethyl-1,2-oxazol-4-yl)-5H-pyrido[3,2-b]indol-7-yl}propan-2-ol]	< 25 nM
Cc1noc(C)c1-c1cnc2c3ccc(C(C)(C)O)cc3n(C(c3ccc(F)c(F)c3)C3CCOCC3)c2c1 (single isomer, unassigned) [Example 142, 2-{5-[(3,4-Difluorophenyl)(oxan-4-yl)methyl]-3-(dimethyl-1,2-oxazol-4-yl)-5H-pyrido[3,2-b]indol-7-yl}propan-2-ol]	< 5 nM
